Test results: PubChem BioAssay AID1259407 (Chemical Carcinogenesis Research Information System (CCRIS), 2018)
Activity calls are given as the source filed them. How the calls were made is not given here.

Tested on: CCRIS mutagenicity, Ames/micronucleus/aberration tests
Test: CCRIS mutagenicity studies
[1] = Test System: AMES SALMONELLA TYPHIMURIUM, Strain/Indicator: TA98, Metabolic Activation: NONE, Method: PREINCUBATION
[2] = Test System: AMES SALMONELLA TYPHIMURIUM, Strain/Indicator: TA100, Metabolic Activation: NONE, Method: PREINCUBATION
[3] = Test System: AMES SALMONELLA TYPHIMURIUM, Strain/Indicator: TA1535, Metabolic Activation: NONE, Method: PREINCUBATION
[4] = Test System: AMES SALMONELLA TYPHIMURIUM, Strain/Indicator: TA98, Metabolic Activation: NONE, Method: STANDARD PLATE
[5] = Test System: AMES SALMONELLA TYPHIMURIUM, Strain/Indicator: TA100, Metabolic Activation: NONE, Method: STANDARD PLATE
[6] = Test System: AMES SALMONELLA TYPHIMURIUM, Strain/Indicator: TA1537, Metabolic Activation: NONE, Method: STANDARD PLATE
[7] = Test System: AMES SALMONELLA TYPHIMURIUM, Strain/Indicator: TA100, Metabolic Activation: RAT, LIVER, S-9, PCB, Method: PREINCUBATION

## O=S1(=O)CC=CC1
End Point: IN VITRO CHROMOSOMAL ABERRATIONS, Test System: CHO-LB CELLS, Metabolic Activation: NONE
  mutagenic call: inactive; negative
End Point: IN VITRO CHROMOSOMAL ABERRATIONS, Test System: CHO-LB CELLS, Metabolic Activation: RAT, LIVER, S-9, AROCLOR 1254
  mutagenic call: inactive; negative
Test System: AMES SALMONELLA TYPHIMURIUM, Strain/Indicator: TA98, Metabolic Activation: HAMSTER, LIVER, S-9, AROCLOR 1254 (10%), Method: PREINCUBATION
  mutagenic call: inactive; negative
[1]
  mutagenic call: inactive; negative
Test System: AMES SALMONELLA TYPHIMURIUM, Strain/Indicator: TA98, Metabolic Activation: RAT, LIVER, S-9, AROCLOR 1254 (10%), Method: PREINCUBATION
  mutagenic call: inactive; negative
Test System: AMES SALMONELLA TYPHIMURIUM, Strain/Indicator: TA100, Metabolic Activation: HAMSTER, LIVER, S-9, AROCLOR 1254 (10%), Method: PREINCUBATION
  mutagenic call: inactive; negative
[2]
  mutagenic call: inactive; negative
Test System: AMES SALMONELLA TYPHIMURIUM, Strain/Indicator: TA100, Metabolic Activation: RAT, LIVER, S-9, AROCLOR 1254 (10%), Method: PREINCUBATION
  mutagenic call: inactive; negative
Test System: AMES SALMONELLA TYPHIMURIUM, Strain/Indicator: TA1535, Metabolic Activation: HAMSTER, LIVER, S-9, AROCLOR 1254 (10%), Method: PREINCUBATION
  mutagenic call: inactive; negative
[3]
  mutagenic call: inactive; negative
Test System: AMES SALMONELLA TYPHIMURIUM, Strain/Indicator: TA1535, Metabolic Activation: RAT, LIVER, S-9, AROCLOR 1254 (10%), Method: PREINCUBATION
  mutagenic call: inactive; negative
Test System: AMES SALMONELLA TYPHIMURIUM, Strain/Indicator: TA1537, Metabolic Activation: HAMSTER, LIVER, S-9, AROCLOR 1254 (10%), Method: PREINCUBATION
  mutagenic call: inactive; negative
Test System: AMES SALMONELLA TYPHIMURIUM, Strain/Indicator: TA1537, Metabolic Activation: NONE, Method: PREINCUBATION
  mutagenic call: inactive; negative
Test System: AMES SALMONELLA TYPHIMURIUM, Strain/Indicator: TA1537, Metabolic Activation: RAT, LIVER, S-9, AROCLOR 1254 (10%), Method: PREINCUBATION
  mutagenic call: inactive; negative

## C=Cc1ccc(O)c(C=C)c1
[4]
  mutagenic call: inactive; negative
Test System: AMES SALMONELLA TYPHIMURIUM, Strain/Indicator: TA98, Metabolic Activation: S-9, Method: STANDARD PLATE
  mutagenic call: inactive; negative
[5]
  mutagenic call: inactive; negative
Test System: AMES SALMONELLA TYPHIMURIUM, Strain/Indicator: TA100, Metabolic Activation: S-9, Method: STANDARD PLATE
  mutagenic call: inactive; negative

## CC(C)(C)CBr
Test System: AMES SALMONELLA TYPHIMURIUM, Strain/Indicator: TA97, Metabolic Activation: NONE, Method: STANDARD PLATE
  mutagenic call: inactive; negative
[4]
  mutagenic call: inactive; negative
Test System: AMES SALMONELLA TYPHIMURIUM, Strain/Indicator: TA98, Metabolic Activation: RAT, LIVER, S-9, AROCLOR, Method: STANDARD PLATE
  mutagenic call: inactive; negative
[5]
  mutagenic call: inactive; negative
Test System: AMES SALMONELLA TYPHIMURIUM, Strain/Indicator: TA100, Metabolic Activation: RAT, LIVER, S-9, AROCLOR, Method: STANDARD PLATE
  mutagenic call: inactive; negative
Test System: AMES SALMONELLA TYPHIMURIUM, Strain/Indicator: TA1535, Metabolic Activation: NONE, Method: STANDARD PLATE
  mutagenic call: inactive; negative
[6]
  mutagenic call: inactive; negative
Test System: AMES SALMONELLA TYPHIMURIUM, Strain/Indicator: TA1538, Metabolic Activation: NONE, Method: STANDARD PLATE
  mutagenic call: inactive; negative
Test System: AMES SALMONELLA TYPHIMURIUM, Strain/Indicator: TA2637, Metabolic Activation: NONE, Method: STANDARD PLATE
  mutagenic call: inactive; negative

## Cc1cccc(C)c1NO
[2]
  mutagenic call: active; positive
[7]
  mutagenic call: active; positive

## O=[N+]([O-])c1ccc2c(c1)CCc1cc3c(cc1-2)CCCC3
Test System: AMES SALMONELLA TYPHIMURIUM, Strain/Indicator: TA98(1,8-DNP6), Metabolic Activation: NONE
  mutagenic call: active; positive
Test System: AMES SALMONELLA TYPHIMURIUM, Strain/Indicator: TA98(1,8-DNP6), Metabolic Activation: RAT, LIVER, S-9, AROCLOR 1254
  mutagenic call: active; positive
Test System: AMES SALMONELLA TYPHIMURIUM, Strain/Indicator: TA98(NR), Metabolic Activation: NONE
  mutagenic call: active; positive
Test System: AMES SALMONELLA TYPHIMURIUM, Strain/Indicator: TA98(NR), Metabolic Activation: RAT, LIVER, S-9, AROCLOR 1254
  mutagenic call: active; positive
Test System: AMES SALMONELLA TYPHIMURIUM, Strain/Indicator: TA98, Metabolic Activation: NONE
  mutagenic call: active; positive
Test System: AMES SALMONELLA TYPHIMURIUM, Strain/Indicator: TA98, Metabolic Activation: RAT, LIVER, S-9, AROCLOR 1254
  mutagenic call: active; positive
Test System: AMES SALMONELLA TYPHIMURIUM, Strain/Indicator: TA100(NR), Metabolic Activation: NONE
  mutagenic call: active; positive
Test System: AMES SALMONELLA TYPHIMURIUM, Strain/Indicator: TA100(NR), Metabolic Activation: RAT, LIVER, S-9, AROCLOR 1254
  mutagenic call: active; positive
Test System: AMES SALMONELLA TYPHIMURIUM, Strain/Indicator: TA100, Metabolic Activation: NONE
  mutagenic call: active; positive
Test System: AMES SALMONELLA TYPHIMURIUM, Strain/Indicator: TA100, Metabolic Activation: RAT, LIVER, S-9, AROCLOR 1254
  mutagenic call: active; positive
Test System: AMES SALMONELLA TYPHIMURIUM, Strain/Indicator: TA104, Metabolic Activation: NONE
  mutagenic call: active; positive
Test System: AMES SALMONELLA TYPHIMURIUM, Strain/Indicator: TA104, Metabolic Activation: RAT, LIVER, S-9, AROCLOR 1254
  mutagenic call: active; positive

## COc1cc(O)c2c(c1)C(=O)c1c(O)c(C)cc(O)c1C2=O
[6]
  mutagenic call: inactive; negative
Test System: AMES SALMONELLA TYPHIMURIUM, Strain/Indicator: TA1537, Metabolic Activation: S-9, Method: STANDARD PLATE
  mutagenic call: active; positive

## ClCC(Cl)COCC(Cl)CCl (stereo not drawn)
[1]
  mutagenic call: inactive; negative
Test System: AMES SALMONELLA TYPHIMURIUM, Strain/Indicator: TA98, Metabolic Activation: RAT LIVER S-9, AROCLOR 1254 (10%), Method: PREINCUBATION
  mutagenic call: active; positive
[2]
  mutagenic call: inactive; negative
Test System: AMES SALMONELLA TYPHIMURIUM, Strain/Indicator: TA100, Metabolic Activation: RAT LIVER S-9, AROCLOR 1254 (10%), Method: PREINCUBATION
  mutagenic call: active; positive
[3]
  mutagenic call: inactive; negative
Test System: AMES SALMONELLA TYPHIMURIUM, Strain/Indicator: TA1535, Metabolic Activation: RAT LIVER S-9, AROCLOR 1254 (10%), Method: PREINCUBATION
  mutagenic call: active; positive
Test System: AMES SALMONELLA TYPHIMURIUM, Strain/Indicator: TA1538, Metabolic Activation: NONE, Method: PREINCUBATION
  mutagenic call: inactive; negative
Test System: AMES SALMONELLA TYPHIMURIUM, Strain/Indicator: TA1538, Metabolic Activation: RAT LIVER S-9, AROCLOR 1254 (10%), Method: PREINCUBATION
  mutagenic call: inactive; negative

## C[C@@](Cc1ccc(O)c(O)c1)(NN)C(=O)O
[5]
  mutagenic call: active; positive
Test System: AMES SALMONELLA TYPHIMURIUM, Strain/Indicator: TA100, Metabolic Activation: RAT, LIVER, S-9, PHENOBARBITAL, Method: STANDARD PLATE
  mutagenic call: active; positive
Test System: UDS RAT HEPATOCYTES, Strain/Indicator: THY INCORP, Metabolic Activation: NONE, Method: AUTORADIOGRAPHY
  mutagenic call: inactive; negative

## Clc1nncc2cccnc12
[1]
  mutagenic call: inactive; negative
Test System: AMES SALMONELLA TYPHIMURIUM, Strain/Indicator: TA98, Metabolic Activation: RAT, LIVER, S-9, PCB, Method: PREINCUBATION
  mutagenic call: active; positive
[2]
  mutagenic call: inactive; negative
[7]
  mutagenic call: active; positive
